From patent US20260226068A1, “IMIDAZOTRIAZINE IL-17A MODULATORS AND USES THEREOF” (DICE ALPHA, INC., priority 2023, published 2026)

Key:
IL-17A/F = target: T1, IL-17A/F (Homo sapiens, UniProt Q16552+Q96PD4); experiment: IL-17A/F HEK-Blue cell assay (SEAP reporter); type: cell-based; settings: HEK-Blue IL-17A reporter cells, IL17A/F 5 ng/mL, 20 hours, SEAP read at A630; read-out: HEK-Blue IL17AF (IC50 for IL-17A/F inhibition)
T1 construct: purchased R&D Systems
T1 sequence (Q16552 24-155): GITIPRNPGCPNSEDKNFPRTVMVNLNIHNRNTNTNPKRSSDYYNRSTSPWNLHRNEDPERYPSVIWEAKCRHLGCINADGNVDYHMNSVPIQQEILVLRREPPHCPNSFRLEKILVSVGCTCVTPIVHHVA
T1 sequence (Q96PD4 31-163): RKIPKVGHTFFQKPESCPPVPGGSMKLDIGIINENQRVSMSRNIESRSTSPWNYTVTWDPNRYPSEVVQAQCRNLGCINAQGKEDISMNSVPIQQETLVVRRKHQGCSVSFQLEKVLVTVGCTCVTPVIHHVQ

IL-17A/A = target: T2, IL-17A/A (Homo sapiens, UniProt Q16552); experiment: IL-17A/A HEK-Blue cell assay (SEAP reporter); type: cell-based; settings: HEK-Blue IL-17A reporter cells, IL17A/A 5 ng/mL, 20 hours, SEAP read at A630; read-out: HEK-Blue IL17AA (IC50 for IL-17A/A inhibition)
T2 construct: purchased Genscript Z03228
T2 sequence (Q16552 24-155): T1 sequence (Q16552 24-155)

Work on `CCn1nccc1C(=O)N[C@H](c1cn2nc(C[C@H]3C[C@@H](C(F)(F)F)CNC3=O)c(N3C[C@@H](C)O[C@@H](C)C3)nc2n1)C1CCC(F)(F)CC1` [Compound 247, N—((S)-(4,4-difluorocyclohexyl)(3-((2R,6S)-2,6-dimethylmorpholino)-2-(((3R,5R)-2-oxo-5-(trifluoromethyl)piperidin-3-yl)methyl)imidazo[1,2-b][1,2,4]triazin-6-yl)methyl)-1-ethyl-1H-pyrazole-5-carboxamide] yielded an IC50 (IL-17A/F) of 100 to 1000 nM and an IC50 (IL-17A/A) of under 100 nM.
Compound `CCn1ncnc1C(=O)N[C@H](c1cn2nc(C[C@H]3C[C@@H](C(F)(F)F)CNC3=O)c(C3CCS(=O)(=O)CC3)nc2n1)C1CCC(F)(F)CC1` [Compound 248, N—((S)-(4,4-difluorocyclohexyl)(3-(1,1-dioxidotetrahydro-2H-thiopyran-4-yl)-2-(((3R,5R)-2-oxo-5-(trifluoromethyl)piperidin-3-yl)methyl)imidazo[1,2-b][1,2,4]triazin-6-yl)methyl)-1-ethyl-1H-1,2,4-triazole-5-carboxamide] has an IC50 (IL-17A/F) of over 1000 nM and an IC50 (IL-17A/A) of under 100 nM.
`O=C(N[C@H](c1cn2nc(C[C@H]3C[C@@H](C(F)(F)F)CNC3=O)c([C@H]3CCCOC3)nc2n1)[C@@H]1CCCC(F)(F)C1)c1nonc1C1CC1` [Compound 249] was tested, and the IC50 (IL-17A/F) was 100 to 1000 nM and the IC50 (IL-17A/A) was under 100 nM.
Work on `CCn1nccc1C(=O)N[C@H](c1cn2nc(C[C@H]3C[C@@H](C(F)(F)F)CNC3=O)c(C34CCOC(C3)C4)nc2n1)C1CCC(F)(F)CC1` [Compound 250, N—((S)-(3-(2-oxabicyclo[3.1.1]heptan-5-yl)-2-(((3R,5R)-2-oxo-5-(trifluoromethyl)piperidin-3-yl)methyl)imidazo[1,2-b][1,2,4]triazin-6-yl)(4,4-difluorocyclohexyl)methyl)-1-ethyl-1H-pyrazole-5-carboxamide] yielded an IC50 (IL-17A/F) of 100 to 1000 nM and an IC50 (IL-17A/A) of under 100 nM.
With `CCn1nccc1C(=O)N[C@H](c1cn2nc(C[C@H]3C[C@@H](C(F)(F)F)CNC3=O)c(C34COCC(C3)C4)nc2n1)C1CCC(F)(F)CC1` [Compound 253, N—((S)-(3-(3-oxabicyclo[3.1.1]heptan-1-yl)-2-(((3R,5R)-2-oxo-5-(trifluoromethyl)piperidin-3-yl)methyl)imidazo[1,2-b][1,2,4]triazin-6-yl)(4,4-difluorocyclohexyl)methyl)-1-ethyl-1H-pyrazole-5-carboxamide] the IC50 (IL-17A/F) was 100 to 1000 nM and the IC50 (IL-17A/A) was under 100 nM.
Work on `CCn1nccc1C(=O)N[C@H](c1cn2nc(C[C@H]3C[C@@H](C(F)(F)F)CNC3=O)c(C34CCCC(C3)OC4)nc2n1)C1CCC(F)(F)CC1` (stereo partly drawn) [Compound 254, N-((1S)-(3-(6-oxabicyclo[3.2.1]octan-1-yl)-2-(((3R,5R)-2-oxo-5-(trifluoromethyl)piperidin-3-yl)methyl)imidazo[1,2-b][1,2,4]triazin-6-yl)(4,4-difluorocyclohexyl)methyl)-1-ethyl-1H-pyrazole-5-carboxamide] yielded an IC50 (IL-17A/F) of 100 to 1000 nM and an IC50 (IL-17A/A) of under 100 nM.
`CCn1nccc1C(=O)N[C@H](c1cn2nc(C[C@H]3C[C@@H](C(F)(F)F)CNC3=O)c(C34COC(C3)C4)nc2n1)C1CCC(F)(F)CC1` [Compound 255, N—((S)-(3-(2-oxabicyclo[2.1.1]hexan-4-yl)-2-(((3R,5R)-2-oxo-5-(trifluoromethyl)piperidin-3-yl)methyl)imidazo[1,2-b][1,2,4]triazin-6-yl)(4,4-difluorocyclohexyl)methyl)-1-ethyl-1H-pyrazole-5-carboxamide] was tested, and the IC50 (IL-17A/F) was 100 to 1000 nM and the IC50 (IL-17A/A) was under 100 nM.
In the case of `CC(F)(F)c1nocc1C(=O)N[C@H](c1cn2nc(C[C@H]3C[C@@H](C(F)(F)F)CNC3=O)c(C3CCOCC3)nc2n1)C1CCC(F)(F)CC1` [Compound 260, N—((S)-(4,4-difluorocyclohexyl)(2-(((3R,5R)-2-oxo-5-(trifluoromethyl)piperidin-3-yl)methyl)-3-(tetrahydro-2H-pyran-4-yl)imidazo[1,2-b][1,2,4]triazin-6-yl)methyl)-3-(1,1-difluoroethyl)isoxazole-4-carboxamide], the IC50 (IL-17A/F) is reported as 100 to 1000 nM and the IC50 (IL-17A/A) is reported as under 100 nM.
Compound `CC(C)c1nc2nc([C@@H](NC(=O)c3ccnn3C)C3CCC(F)(F)CC3)cn2nc1C[C@H]1C[C@@H](C(F)(F)F)CNC1=O` [Compound 261, N—((S)-(4,4-difluorocyclohexyl)(3-isopropyl-2-(((3R,5R)-2-oxo-5-(trifluoromethyl)piperidin-3-yl)methyl)imidazo[1,2-b][1,2,4]triazin-6-yl)methyl)-1-methyl-1H-pyrazole-5-carboxamide] has an IC50 (IL-17A/F) of 100 to 1000 nM and an IC50 (IL-17A/A) of under 100 nM.
Compound `Cn1nccc1C(=O)N[C@H](c1cn2nc(C[C@H]3C[C@@H](C(F)(F)F)CNC3=O)c(C3CCC(F)(F)CC3)nc2n1)C1CCC(F)(F)CC1` [Compound 262, N—((S)-(4,4-difluorocyclohexyl)(3-(4,4-difluorocyclohexyl)-2-(((3R,5R)-2-oxo-5-(trifluoromethyl)piperidin-3-yl)methyl)imidazo[1,2-b][1,2,4]triazin-6-yl)methyl)-1-methyl-1H-pyrazole-5-carboxamide] has an IC50 (IL-17A/F) of 100 to 1000 nM and an IC50 (IL-17A/A) of under 100 nM.
For `CCn1nccc1C(=O)N[C@H](c1cn2nc(C[C@H]3C[C@@H](C(F)(F)F)CNC3=O)c(C3(OC)CCOCC3)nc2n1)C1CCC(F)(F)CC1` [Compound 269, N—((S)-(4,4-difluorocyclohexyl)(3-(4-methoxytetrahydro-2H-pyran-4-yl)-2-(((3R,5R)-2-oxo-5-(trifluoromethyl)piperidin-3-yl)methyl)imidazo[1,2-b][1,2,4]triazin-6-yl)methyl)-1-ethyl-1H-pyrazole-5-carboxamide], the IC50 (IL-17A/F) was over 1000 nM and the IC50 (IL-17A/A) was under 100 nM.
`CCn1nccc1C(=O)N[C@H](c1cn2nc(C[C@H]3C[C@@H](C(F)(F)F)CNC3=O)c(C3(OC)CCC(F)(F)CC3)nc2n1)C1CCC(F)(F)CC1` [Compound 270, N—((S)-(3-(4,4-difluoro-1-methoxycyclohexyl)-2-(((3R,5R)-2-oxo-5-(trifluoromethyl)piperidin-3-yl)methyl)imidazo[1,2-b][1,2,4]triazin-6-yl)(4,4-difluorocyclohexyl)methyl)-1-ethyl-1H-pyrazole-5-carboxamide] showed an IC50 (IL-17A/F) of over 1000 nM and an IC50 (IL-17A/A) of under 100 nM.
With `CCn1nccc1C(=O)N[C@H](c1cn2nc(C[C@H]3C[C@@H](C(F)(F)F)CNC3=O)c(C(C)(F)F)nc2n1)C1CCC(F)(F)CC1` [Compound 273, N—((S)-(4,4-difluorocyclohexyl)(3-(1,1-difluoroethyl)-2-(((3R,5R)-2-oxo-5-(trifluoromethyl)piperidin-3-yl)methyl)imidazo[1,2-b][1,2,4]triazin-6-yl)methyl)-1-ethyl-1H-pyrazole-5-carboxamide] the IC50 (IL-17A/F) was over 1000 nM and the IC50 (IL-17A/A) was under 100 nM.
`CCn1nccc1C(=O)N[C@H](c1cn2nc(C[C@H]3C[C@@H](C(F)(F)F)CNC3=O)c(CCOC)nc2n1)C1CCC(F)(F)CC1` [Compound 276, N—((S)-(4,4-difluorocyclohexyl)(3-(2-methoxyethyl)-2-(((3R,5R)-2-oxo-5-(trifluoromethyl)piperidin-3-yl)methyl)imidazo[1,2-b][1,2,4]triazin-6-yl)methyl)-1-ethyl-1H-pyrazole-5-carboxamide] gave an IC50 (IL-17A/F) of 100 to 1000 nM and an IC50 (IL-17A/A) of under 100 nM.
For `Cn1nccc1C(=O)N[C@H](c1cn2nc(C[C@H]3C[C@@H](C(F)(F)F)CNC3=O)c(C3CCOCC3)nc2n1)[C@@H]1CCCC(F)(F)C1` [Compound 277, N—((S)—((R)-3,3-difluorocyclohexyl)(2-(((3R,5R)-2-oxo-5-(trifluoromethyl)piperidin-3-yl)methyl)-3-(tetrahydro-2H-pyran-4-yl)imidazo[1,2-b][1,2,4]triazin-6-yl)methyl)-1-methyl-1H-pyrazole-5-carboxamide], the IC50 (IL-17A/F) was 100 to 1000 nM and the IC50 (IL-17A/A) was under 100 nM.
`Cn1nccc1C(=O)N[C@H](c1cn2nc(C[C@H]3C[C@@H](C(F)(F)F)CNC3=O)c(C3CCOCC3)nc2n1)[C@H]1CCCC(F)(F)C1` [Compound 278, N—((S)—((S)-3,3-difluorocyclohexyl)(2-(((3R,5R)-2-oxo-5-(trifluoromethyl)piperidin-3-yl)methyl)-3-(tetrahydro-2H-pyran-4-yl)imidazo[1,2-b][1,2,4]triazin-6-yl)methyl)-1-methyl-1H-pyrazole-5-carboxamide] gave an IC50 (IL-17A/F) of 100 to 1000 nM and an IC50 (IL-17A/A) of under 100 nM.
Compound `CCn1nccc1C(=O)N[C@H](c1cn2nc(C[C@H]3CC(F)(F)CNC3=O)c(C3CCOCC3)nc2n1)C1CCC(F)(F)CC1` [Compound 279] has an IC50 (IL-17A/F) of over 1000 nM and an IC50 (IL-17A/A) of under 100 nM.
`Cn1nccc1C(=O)N[C@H](c1cn2nc(C[C@H]3C[C@@H](C(F)(F)F)CNC3=O)c(C3(C)CCOCC3)nc2n1)C1CCC(F)(F)CC1` [Compound 280, N—((S)-(4,4-difluorocyclohexyl)(3-(4-methyltetrahydro-2H-pyran-4-yl)-2-(((3R,5R)-2-oxo-5-(trifluoromethyl)piperidin-3-yl)methyl)imidazo[1,2-b][1,2,4]triazin-6-yl)methyl)-1-methyl-1H-pyrazole-5-carboxamide] gave an IC50 (IL-17A/F) of over 1000 nM and an IC50 (IL-17A/A) of under 100 nM.
In the case of `CCn1nccc1C(=O)N[C@H](c1cn2nc(C[C@H]3C[C@@H](C(F)(F)F)CC3=O)c(C3CCOCC3)nc2n1)C(C1CC1)C1CC1` [Compound 281], the IC50 (IL-17A/F) is reported as 100 to 1000 nM and the IC50 (IL-17A/A) is reported as under 100 nM.
With `CCn1nccc1C(=O)N[C@H](c1cn2nc(C[C@H]3C[C@@H](C(F)(F)F)CNC3=O)c(N3CCO[C@H](C)C3)nc2n1)C1CCC(F)(F)CC1` [Compound 282, N—((S)-(4,4-difluorocyclohexyl)(3-((R)-2-methylmorpholino)-2-(((3R,5R)-2-oxo-5-(trifluoromethyl)piperidin-3-yl)methyl)imidazo[1,2-b][1,2,4]triazin-6-yl)methyl)-1-ethyl-1H-pyrazole-5-carboxamide] the IC50 (IL-17A/F) was under 100 nM and the IC50 (IL-17A/A) was under 100 nM.
